Consider seven compounds from EP3543705A1, “MITOCHONDRIAL PH PROBE” (priority 2018, dated 2019).

Data set [1] in a line: pH dependence of fluorescence at 520 nm of the active probe (pKa study). The format is physicochemical. The conditions noted are these: PBS buffer with 5% BSA, estimated. How it is done:
The pH dependence for fluorescence at 520 nm of 5FA-PIP-Cy5, the active form of 5FA-PIP-Cy5-DA was measured with 5FA-PIP-Cy5 dissolved in a PBS buffer with 5% BSA. (see Figure 3). From this study the pKa of the active form was estimated to be 6.88. This value is within expectable range for the fluorescein moiety containing electron-donor amide group and is within the physiologically relevant range of 6.5 - 8.5.

The test system of data set [2] is A2780 cells. Kind of data set: mitochondrial staining with the inactive (caged) form versus the active form. Conditions: 2uM, identical conditions. In kind it is cell-based.
In data set [3] the test system is LT-HSC. Kind of data set: mitochondrial pH of hematopoietic stem cells in different culture conditions, measured with 5FA-PIP-Cy5-DA. The format is cell-based, mice. The conditions noted are these: LT-HSC cultured with 5 uM DMOG or IL-3 20 ng/mL and IL-6 100ng/mL, compared with basal medium, ST-HSC and MPP. The source says: For LT-HSC cells, three different culture conditions (basal medium, DMOG-induced chemical hypoxia and IL-3, IL-6 - induced differentiation) were examined. The calibration curve for the ratio of 5Fluoro/Cy5 fluorescence was obtained using FCCP and a PBS-5% BSA buffer with MPP cells in a manner analogous to the method described in Example 2 (see Figure 10). Fresh cells, extracted from bone marrow of 8-12 week old male mice were stained on ice for surface cell markers and sorted by FACS, according to the following phenotypes: LT-HSC Lin- cKit+ Sca1+ CD150+ CD34- CD48-; ST-HSC Lin- cKit+ Sca1 + CD150+ CD34+; MPP Lin- cKit+ Sca1 + CD150- CD34+. The cells were cultured in Hematopoietic Stemline II (Sigma) medium with addition of SCF and Flt-3 cytokines. For appropriate experiments, additionally 5 uM DMOG or IL-3 20 ng/mL and IL-6 100ng/mL cytokines were added. […] Separate fluorescent images in green and deep red spectral channels were acquired. The florescence ratio was quantified by a specifically designed batch ImageJ plugin as described above.

Data set [4] concerns mitochondria of A2780 ovarian cancer cell line. Kind of data set: fluorescein/Cy5 fluorescence ratio in stained live cells treated with nigericin or FCCP. The format is cell-based. Conditions: 300 nM FCCP or 2uM nigericin versus DMSO vehicle control; cells stained with 2 µM 5FA-PIP-Cy5-DA. How it is done:
A2780 ovarian cancer cells were cultured in 24-well microscopy glass bottom plates in a CO2 incubator. […] Separate fluorescent images in green (488/520 nm) and deep red (640/660 nm) spectral channels were acquired on Visitron W1 spinning disk confocal microscope. The florescence ratio was quantified using a specifically designed batch ImageJ plugin. This software thresholds the pH-independent Cy5 channel, quantifies the fluorescence intensity in the thresholded image areas, and uses the thresholded mask to quantify the intensity of pH-dependent 5Fluo channel. The intensity ratio is then used to estimate the mitochondrial pH of the cells. […] Typical pH variations in mitochondria of A2780 ovarian cancer cell line are represented at Figure 4. Typical staining procedure is described further. […] All images are maximum intensity projection. […] The mitochondrial staining on Figure 4A is very homogeneous. […] The mitochondrial staining on Figure 4B is very heterogeneous, unlike the Figure 4A. Figure 4C represents the overlap image of Figure 4A and Figure 4B. Bluish hint Figure 4C corresponds to relatively high mitochondrial pH, reddish to relatively low mitochondrial pH. Figure 4D represents bright field image. […] Confocal images were acquired for control, FCCP- and nigericin-treated cell samples, and the ratio between fluorescein and Cy5 channel fluorescence was quantified.

Data set [5] shares this test system. Kind of data set: probe calibration in defined-pH buffers: collapse of the mitochondrial pH gradient. In kind it is cell-based. The conditions noted are these: stained cells in high K+ buffers, pH range 6.73 to 8.36.
Description: A2780 ovarian cancer cells were cultured in 24-well microscopy glass bottom plates in a CO2 incubator. Prior to imaging, the cells were stained with 2uM 5FA-PIP-Cy5-DA, and/or TMRM (20nM) for 30 min in bicarbonate-free DMEM medium to avoid extracellular pH fluctuations, then washed with the same medium (without 5FA-PIP-Cy5-DA) and imaged with confocal spinning disk microscopy at 60x magnification When TMRM was used, this dye was also present in the bicarbonate-free DMEM medium during the imaging of the cells. Separate fluorescent images in green (488/520 nm) and deep red (640/660 nm) spectral channels were acquired on Visitron W1 spinning disk confocal microscope. The florescence ratio was quantified using a specifically designed batch ImageJ plugin. This software thresholds the pH-independent Cy5 channel, quantifies the fluorescence intensity in the thresholded image areas, and uses the thresholded mask to quantify the intensity of pH-dependent 5Fluo channel. The intensity ratio is then used to estimate the mitochondrial pH of the cells. Calibration of the intensity ratio was achieved through the staining of A2780 cells in a series of PBS - 5% BSA buffers with defined pH, containing 20mM HEPES and 5uM FCCP, to equilibrate the mitochondrial pH with the pH of the buffer.
The stained cells were treated with FCCP in high K^+ buffers in a pH range of 6.73 to 8.36.
The subject of data set [6] is A2780 cells. Kind of data set: mitochondrial pH of drug-treated cells, measured with 5FA-PIP-Cy5-DA. In kind it is cell-based. The source says: The calibration curve for the ratio of 5Fluoro/Cy5 fluorescence was obtained using FCCP and a PBS-5% BSA buffer with A2780 cells in a manner analogous to the method described in Example 2 (see Figure 12). The quantifying of mitochondrial pH in the presence of the drug and after the drug was washed away allowed the distinction between interference with mitochondrial metabolism and general cytotoxicity. If the effect of the drug was primarily to affect mitochondrial metabolism it was expected that the mitochondrial pH would quickly return to the non-treated cell level following removal of the drug, providing the drug had no other significant cytotoxic effects. Conversely, if the effect of the drug were not reversed by the washing step, an observed alteration of mitochondrial pH could be interpreted at least partially as a downstream consequence of the general cytotoxicity of the drug. A2780 cells were cultured in 24-well microscopy glass bottom plates in RPMI medium, containing Glutamax with 10% FBS addition. The cells were treated with appropriate 800uM […] or 5uM cisplatin. […] If the drug was not washed away prior to staining, it remained present in the medium through the whole imaging time. Separate fluorescent images in green and deep red spectral channels were acquired. The florescence ratio was quantified by a specifically designed batch ImageJ plugin as described above. Statistical analysis was performed using 1-way ANOVA with Bonferroni-Holm post-hoc analysis.

The mark [7] stands for this setting: after the drug was washed away, treated one day with 800uM RAPTA-T or 5uM cisplatin, control cells pH 8.4.
[8] abbreviates: in the presence of the drug, treated one day with 800uM RAPTA-T or 5uM cisplatin, control cells pH 8.4.

Structures are written as SMILES.

With `CN1C(=CC=CC=CC2=[N+](CCCCCC(=O)N3CCN(CC(=O)Nc4ccc5c(c4)C(=O)OC54c5ccc(O)cc5Oc5cc(O)ccc54)CC3)c3ccccc3C2(C)C)C(C)(C)c2ccccc21` [5FA-PIP-Cy5], the “pKa of the active form” value in data set [1] was 6.88. Also, in data set [2], the staining of mitochondria result is on record as “absolutely no staining of mitochondria”.
Take `COC(=O)CNC(=O)C(=O)OC` [DMOG]: in data set [3], the “average mitochondrial pH” value is recorded as “the same level of average mitochondrial pH”.
Take `N#CC(C#N)=NNc1ccc(OC(F)(F)F)cc1` [FCCP, carbonylcyanide-4-trifluoromethoxyphenylhydrazone]: the 5Fluo-Cy5 ratio entry in data set [4] is on record as “clear measurable decrease”. In addition, the “collapse of the mitochondrial pH gradient” value in data set [5] is recorded as “full collapse of the mitochondrial pH gradient”.
Regarding `Cc1ccccc1.[Cl][Ru]([Cl])[PH]12CN3CN(CN(C3)C1)C2` [RAPTA-T], the “mitochondrial pH” value in data set [6] (setting [7]) is listed as 8.4; in data set [6] (setting [8]), 8.0.
In the case of `N.N.[Cl][Pt][Cl]` [cisplatin], the “mitochondrial pH” value in data set [6] (setting [7]) came out at 8.0; in data set [6] (setting [8]), 7.8.
On to `CO[C@@H]1C[C@@H](C[C@H]2CC[C@H](C)[C@H]([C@@H](C)C(=O)O)O2)O[C@]2(O[C@](C)([C@H]3CC[C@@](C)([C@@H]4O[C@@H]([C@H]5O[C@@](O)(CO)[C@H](C)C[C@@H]5C)C[C@@H]4C)O3)C[C@H]2C)[C@@H]1C` [nigericin], for which the 5Fluo-Cy5 ratio result in data set [4] was “clear measurable decrease”. In addition, the “collapse of the mitochondrial pH gradient” value in data set [5] was “no full gradient collapse”.
`CC[C@H]1/C=C/C=C/C[C@@H](C)[C@H](O)[C@@](C)(O)C(=O)[C@@H](C)[C@H](O)[C@@H](C)C(=O)[C@@H](C)[C@H](O)[C@@H](C)/C=C/C(=O)O[C@@H]2[C@H](C)[C@H](CC1)O[C@]1(CC[C@H](C)[C@H](C[C@@H](C)O)O1)[C@H]2C` [oligomycin]: the “mitochondrial pH” value in data set [6] (addition of 10µm oligomycin, increase from 8.4) is “around 8.5”.
